Legend:
[1] = system: Abeta 1-42; assay: Cellular αLisa assay in SKNBE2 cells, Abeta 1-42; assay type: cell-based, human; details: incubated for 18 hours; for IC50: Homo sapiens, SKNBE2, 18 h, read-out: Cellular αLisa assay in SKNBE2 cells Abeta 42 pIC50 (converted)
How it was run: (§1)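 Secreted Abeta levels were measured by sandwich αLisa, pairing biotin-AbN/25 donor beads with Ab4G8 acceptor beads for total Abeta or cAb42/26 for Abeta 1-42, read at 615 nm after 650 nm excitation following 1 hour. Cells were SKNBE2 expressing wild-type hAPP695, exposed to compound for 18 hours.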

[2] = system: Abeta total; assay: Cellular αLisa assay in SKNBE2 cells, Abeta total; assay type: cell-based, human; details: incubated for 18 hours; for IC50: Homo sapiens, SKNBE2, 18 h, read-out: Cellular αLisa assay in SKNBE2 cells Abetatotal pIC50 (converted)
How it was run: as §1

[3] = molecular target: recombinant BACE1 protein (Homo sapiens, UniProt P56817); assay: Biochemical FRET based assay; details: recombinant BACE1 1 μg/ml, 120 minutes at room temperature, pH 5.0; for IC50: read-out: Biochemical FRET based assay pIC50 (converted)
Sequence of recombinant BACE1 protein (P56817 46-501): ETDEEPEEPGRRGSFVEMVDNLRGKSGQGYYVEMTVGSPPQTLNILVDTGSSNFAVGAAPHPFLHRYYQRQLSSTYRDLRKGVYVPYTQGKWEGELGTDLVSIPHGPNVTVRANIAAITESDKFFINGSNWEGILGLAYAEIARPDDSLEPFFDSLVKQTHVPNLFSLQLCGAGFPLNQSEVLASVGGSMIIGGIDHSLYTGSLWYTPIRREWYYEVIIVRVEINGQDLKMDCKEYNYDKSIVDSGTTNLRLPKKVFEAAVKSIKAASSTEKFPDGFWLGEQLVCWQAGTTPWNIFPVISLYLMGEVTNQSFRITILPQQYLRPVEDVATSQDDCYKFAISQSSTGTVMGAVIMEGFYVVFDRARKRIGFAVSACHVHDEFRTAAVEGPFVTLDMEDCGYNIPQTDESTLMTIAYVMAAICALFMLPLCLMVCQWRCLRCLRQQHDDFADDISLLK
Source text: Biochemical FRET Based Assay
This assay is a Fluorescence Resonance Energy Transfer Assay (FRET) based assay. The substrate for this assay is an APP derived 13 amino acids peptide that contains the ‘Swedish’ Lys-Met/Asn-Leu mutation of the amyloid precursor protein (APP) beta-secretase cleavage site. This substrate also contains two fluorophores: (7-methoxycoumarin-4-yl) acetic acid (Mca) is a fluorescent donor with excitation wavelength at 320 nm and emission at 405 nm and 2,4-Dinitrophenyl (Dnp) is a proprietary quencher acceptor. […] Upon cleavage by BACE1, the fluorophore Mca is separated from the quenching group Dnp, restoring the full fluorescence yield of the donor. The increase in fluorescence is linearly related to the rate of proteolysis.
Briefly in a 384-well format recombinant BACE1 protein in a final concentration of 1 μg/ml is incubated for 120 minutes at room temperature with […] substrate in incubation buffer (40 mM Citrate buffer pH 5.0, 0.04% PEG, 4% DMSO) in the absence or presence of compound. Next the amount of proteolysis is directly measured by fluorescence measurement at T=0 and T=120 (excitation at 320 nm and emission at 405 nm). Results are expressed in RFU (Relative Fluorescence Units), as difference between T120 and TO.

Row | SMILES | Cellular αLisa assay in SKNBE2 cells Abeta 42 pIC50 [1] | Cellular αLisa assay in SKNBE2 cells Abetatotal pIC50 [2] | Biochemical FRET based assay pIC50 [3] | IC50 [1] [nM] | IC50 [2] [nM] | IC50 [3] [nM]
1 | COc1cncc(-c2ccc(F)c(C3(C)COCC(N)=N3)c2)c1 (single isomer, unassigned) [Compound 156] | 7.02 | 7.1 | 5.69 |  |  | 
2 | CC1(c2cccc(NC(=O)c3ccc(Cl)cn3)c2)COC(F)(C(F)(F)F)C(N)=N1 (single isomer, unassigned) [Compound 157] | <5 | <5 | <4.52 |  |  | 
3 | COc1cnc(C(=O)Nc2cccc(C3(C)COC(F)(C(F)(F)F)C(N)=N3)c2)cn1 (single isomer, unassigned) [Compound 158] |  |  |  | > 10000 | > 10000 | > 30200
4 | CC1(c2cccc(NC(=O)c3ncc(Cl)cc3F)c2)N=C(N)COC1F (single isomer, unassigned) [Compound 163] | 8.01 | 8.05 |  |  |  | 40.7
5 | CC1(c2cccc(NC(=O)c3ncc(Cl)cc3F)c2)N=C(N)COC1F (single isomer, unassigned) [Compound 164] | <5 | <5 |  |  |  | > 30200
6 | CC1(c2cccc(NC(=O)c3ncc(Cl)cc3F)c2)N=C(N)COC1(F)C(F)(F)F (single isomer, unassigned) [Compound 173] | 8.11 | 8.07 |  |  |  | 21.9
7 | CC1(c2cccc(NC(=O)c3ncc(Cl)cc3F)c2)N=C(N)COC1(F)C(F)(F)F (single isomer, unassigned) [Compound 175] | 5.18 | 5.24 |  |  |  | 295
8 | COc1cnc(C(=O)Nc2cccc(C3(C)N=C(N)COC3(F)C(F)(F)F)c2)cn1 (single isomer, unassigned) [Compound 176] | 6.34 | 6.38 |  |  |  | 1290
9 | COc1cnc(C(=O)Nc2cccc(C3(C)N=C(N)COC3(F)C(F)(F)F)c2)cn1 (single isomer, unassigned) [Compound 177] | 7.83 | 7.84 |  |  |  | 25.1
10 | COc1cnc(C(=O)Nc2cccc(C3(C)N=C(N)COC3(F)C(F)(F)F)c2)cn1 (single isomer, unassigned) [Compound 178] | 5.33 | 5.35 |  |  |  | 20000
11 | COc1cnc(C(=O)Nc2cccc(C3(C)N=C(N)COC3(F)C(F)(F)F)c2)cn1 (single isomer, unassigned) [Compound 179] | <5 | <5 |  |  |  | > 30200
12 | CC1(c2cccc(NC(=O)c3ccncn3)c2)N=C(N)COC1(F)C(F)(F)F (single isomer, unassigned) [Compound 188] | 6.91 | 6.93 |  |  |  | 437
13 | CC1(c2cccc(NC(=O)c3ccncn3)c2)N=C(N)COC1(F)C(F)(F)F (single isomer, unassigned) [Compound 190] | 5.2 | 5.25 |  |  |  | > 30200
14 | Cc1ccc(C(=O)Nc2cccc(C3(C)N=C(N)COC3(F)C(F)(F)F)c2)nc1 (single isomer, unassigned) [Compound 191] | 5.04 | 5.46 |  |  |  | 18600
15 | Cc1ccc(C(=O)Nc2cccc(C3(C)N=C(N)COC3(F)C(F)(F)F)c2)nc1 (single isomer, unassigned) [Compound 192] | <5 | <5 |  |  |  | > 30200
16 | Cc1ccc(C(=O)Nc2cccc(C3(C)N=C(N)COC3(F)C(F)(F)F)c2)nc1 (single isomer, unassigned) [Compound 193] | 7.19 | 7.23 |  |  |  | 74.1
17 | Cc1ccc(C(=O)Nc2cccc(C3(C)N=C(N)COC3(F)C(F)(F)F)c2)nc1 (single isomer, unassigned) [Compound 194] | 6.08 | 6.13 |  |  |  | 2000
18 | NC1=NC(c2cccc(NC(=O)c3ccc(Cl)cn3)c2)(C2CC2)COC1 (single isomer, unassigned) [Compound 195] | 8.01 | 8.02 |  |  |  | 53.7
19 | NC1=NC(c2cccc(NC(=O)c3ccc(Cl)cn3)c2)(C2CC2)COC1 (single isomer, unassigned) [Compound 196] | 6.92 | 6.95 |  |  |  | > 30200
20 | CC1(c2cccc(-c3cncc(C#N)c3)c2)N=C(N)COC1C(F)(F)F (single isomer, unassigned) [Compound 205] | 5.55 | 5.47 |  |  |  | 15800
21 | CC1(c2cccc(-c3cncc(C#N)c3)c2)N=C(N)COC1C(F)(F)F (single isomer, unassigned) [Compound 206] | <5 | <5 |  |  |  | > 30200
22 | CC1(c2cccc(-c3cncc(C#N)c3)c2)N=C(N)COC1C(F)(F)F (single isomer, unassigned) [Compound 207] | 6.33 | 6.24 |  |  |  | 3470
23 | CC1(c2cc(-c3cncnc3)ccc2F)N=C(N)COC1C(F)(F)F (single isomer, unassigned) [Compound 238] | 6.65 | 6.66 |  |  |  | 832
24 | CC1(c2cc(-c3cncc(C#N)c3)ccc2F)N=C(N)COC1C(F)(F)F (single isomer, unassigned) [Compound 265] | 7.16 | 7.16 |  |  |  | 525
25 | CC1(c2cc(-c3cncc(C#N)c3)ccc2F)N=C(N)COC1C(F)(F)F (single isomer, unassigned) [Compound 266] | <5 | ~5 |  |  |  | > 30200
26 | CC1(c2cc(-c3cncnc3)ccc2F)N=C(N)COC1C(F)(F)F (single isomer, unassigned) [Compound 267] | 5.15 | <5 |  |  |  | > 30200
27 | CC1(c2cc(-c3cncnc3)ccc2F)N=C(N)COC1C(F)(F)F (single isomer, unassigned) [Compound 268] | 7 | 7.09 |  |  |  | 363
28 | C[C@]1(c2ccnc(-c3cc(Cl)cc(Cl)c3)c2)N=C(N)CO[C@@H]1F (single isomer, unassigned) [Compound 277, (5R*,6R*)-5-[2-(3,5-dichlorophenyl)pyridin-4-yl]-6-fluoro-5-methyl-5,6-dihydro-2H-1,4-oxazin-3-amine] |  |  |  | 107 | 112 | 219

— patent US9828350B2, “5,6-dihydro-2H-[1,4]oxazin-3-yl-amine derivatives useful as inhibitors of beta-secretase (BACE)” (Janssen Pharmaceutica NV, priority 2010, dated 2017)
